Reference: patent US8772250B2, “Compositions and methods for treating ischemia and ischemia-reperfusion injury” (Ischemix, LLC, priority 2010, dated 2014)
One block for each compound: values may come before it. Peptide text beside a SMILES is read from it.

Columns and labels:
[1] = test system: myocardial ischemia-reperfusion injury; assay: Rat model of myocardial I/R injury (MI/AR ratio); type: in vivo; conditions: rat model of myocardial I/R injury; data not shown
Source text: A rat model of myocardial I/R injury was used as an in vivo screen to determine if certain lipoic acid derivative compounds are cardio-protective (e.g., against mycoardial ischemia-reperfusion injury). This model is analogous to the ischemia-reperfusion injury observed in cardiac patients following coronary occlusions and cardiac surgery procedures, such as coronary artery bypass grafting (CABG) (Matsui, T., Tao, J., del Monte, F., Lee, K.-H. et al., Akt Activation Preserves Cardiac Function and Prevents Injury After Transient Cardiac Ischemia In vivo, Circulation 2001, 104:330).
The circumflex branch of the left coronary artery was ligated temporarily to induce regional ischemia in the left ventricular mass, followed by the injection of fluorescent microspheres to delineate the ischemic region. The animals were sacrificed about 24 hours after reperfusion and the hearts were excised, sectioned and stained with triphenyltetrazolium. The direct impact of the pharmacologic intervention was determined by measuring the myocardial infarct area (MI), the ischemic area at risk (AR) and the left ventricular area (LV). The reduction of MI over the AR (MI/AR ratio) was used as the primary measure of drug efficacy relative to vehicle controls.
Male Sprague-Dawley rats between 300 and 350 gm were used for these experiments. Anesthesia was induced with 3-4% isoflurane in an induction chamber. After induction, anesthesia was maintained at a surgical plane with 1.5-2.0% isoflurane, administered by a Rodent Ventilator through a 16-gauge angiocatheter introduced orally into the trachea. The ventilator was set at 2.5 cc at a rate of 60-65 breaths per minute to maintain ventilation during surgery. The core temperature of the animal was monitored and maintained at 37° C. using a rectal probe and a heating lamp attached to a temperature controller.
A left anterior thoracotomy was performed and the heart was exposed using a vertical pericardotomy. The circumflex branch of the left coronary artery (LCx) was ligated approximately 4 mm from the aorta using a cardiovascular 7.0 monofilament suture on an 11 mm needle to induce ischemia in the left ventricle.
Fluorescent microspheres (300 μL) were injected into the left ventricular cavity 10-20 minutes after the ligation to delineate the ischemic area. The suture was removed 30 minutes after ligation to reperfuse the ischemic area and the ischemic area was checked for reperfusion.
The chest was then closed in layers using absorbable suture (Dexon 5-0) for the muscle layers and monofilament Nylon 5-0 suture was used to close the cutaneous layer. The animals were allowed to recover, then were returned to the colony.
Twenty-four hours after reperfusion, anesthesia was induced using ketamine hydrochloride and the chest was opened. The animals were sacrificed with 15% potassium chloride aqueous solution (w/v) injected into the LV cavity to arrest the heart in diastole. The heart was excised distal to the aortic valve and washed with saline to remove the blood. Sagittal slices of the heart were obtained between the base of the ventricle and the apex. Five slices of heart tissue were obtained, each 2 mm thick. The slices were immersed in a 1% 2,3,5-triphenyl-2H-tetrazolium chloride (TTC) in saline solution and then stored in the dark for 30 minutes to stain.
Images of the slices were obtained under bright field (to observe the TTC staining) and under fluorescence (to observe the microspheres). The area at risk was determined by the absence of microspheres and the infarct area was determined by the absence of TTC staining.
In vivo experiments employing a rat model of myocardial I/R injury were performed as described in Example 8. Catheterized (jugular vein) rats were used for intravenous dose administration at time points prior to and/or including 0.25 h.

[2] = test system: CHO M1-WT3 cells; assay: Cytosolic calcium overload assay, carbachol stimulated; type: cell-based, Chinese hamster; conditions: 200 nM carbachol, variant concentrations
Source text: Cytosolic calcium increases in the CHO M1-WT3 cells when stimulated with carbachol ([Molecular Devices, FlexStation Application Note 2, Comparison of FLIPR® and FLEXstation™ for Calcium Mobilization Assays]) and may be detected with a fluorescent dye that binds calcium. An increase in fluorescence following carbachol stimulation is interpreted as an increase in cytosolic calcium. Chinese hamster ovary (CHO) cells were allowed to adhere to the bottom of a 96-well culture plate. The fluorescent dye and a test sample were placed on the plate and allowed to be taken up by the cells. The fluorescence level was measured every two seconds using a plate reader (Flexstation II, Molecular Devices, Sunnyvale Calif.). The cells were stimulated with carbachol and fluorescent data reported as the peak increase in fluorescence above baseline following carbachol stimulation. Data were normalized to the peak carbachol response in the control sample.
CHO cells from the cell line CHO-M1-WT3 were grown in Hams F12 medium supplemented with 10% FBS and 5 μg/mL G418 to maintain expression of the M1 muscarinic receptor. Cells were seeded the night before the experiment at a concentration of 30,000 cells/well in a volume of 100 μL per well of black walled, clear bottomed, 96-well microplates (“assay plates”). Cells were incubated at 37° C. and 5% CO2 overnight. […] The cells were placed into the FlexStation system to monitor fluorescence before and after the addition of 50 μL of 1 μM carbachol for a final concentration of 200 nM. Fluorescence was measured for 17 seconds prior to carbachol addition and 43 seconds following carbachol addition. The Fluo-4 dye was excited at a wavelength of 485 nm and emission measured at 525 nm. The Calcium-3 dye was excited at a wavelength of 494 nm and emission measured at 525 nm. The calcium response was reported as the peak fluorescence minus the baseline fluorescence calculated as the average of the fluorescence prior to carbachol addition.

[3] = Oxygen Radical Absorbance Capacity (ORAC) assay
Source text: Peroxyl radicals are one species of reactive oxygen produced by cells during reperfusion. The presence of peroxyl radicals can be detected by fluorescein oxidation. In the presence of peroxyl radicals, fluorescein fluorescence will decay over time. In the presence of an oxygen radical scavenger, the rate of decay is diminished. The change in the rate of decay between control and in the presence of scavengers is used to measure the peroxyl radical scavenging ability of a test compound.
Each compound tested was diluted to a concentration ranging from 25 μM to 250 μM in 10 mM phosphate buffer (pH=7.4) containing 10 nM fluorescein. The buffer and compound were incubated at 37° C. for 10 minutes. After the incubation, flourescein fluorescence was measured using a plate reader (Molecular Devices Flexstation II, Ex=485, Em=520). Baseline fluorescence measurements were recorded for 15 minutes before 2,2′-azobis(2-methylpropionamidine) dihydrochloride (AAPH) was added. The fluorescence decay was recorded for 90 minutes. The fluorescence decay without compound was subtracted from the fluorescence decay with compound. The slope of the decay vs. concentration is reported as the absorbance capacity.

[4] = test system: Akt; assay: Cytoblot assay for Akt activation in A549 cells; type: cell-based, human
Method: The ability of RLip-EA-OH to increase phosphorylated Akt was assayed using an in-cell western blot, or cytoblot. A549 cells (human non-small cell lung cancer cell line) were selected because these cells can be manipulated to increase or decrease the level of phosphoryated Akt. The cells were inoculated onto culture plates and allowed to adhere to the bottom, then treated, fixed, and permeabilized. Following permeabilization, the cells were treated with antibodies specific for either phospho-Akt or total Akt. The cells were then treated with fluorescent secondary antibodies to quantify the amount of bound primary antibody. Total Akt and phospho-Akt were simultaneously detected.
A549 cells were plated in 384 well black-wall, clear-bottom, cell culture-treated microtiter plates at 70% confluence. Cells were incubated overnight to allow cell attachment. The media was changed to low serum (0.1%, fetal bovine serum [FBS]) and the cells were incubated for another 24 hours. Cells were treated with test compounds, fixed and permeabilized for the Akt assay. The fixative was 3.7% formaldehyde in phosphate buffered saline. The permeabilization buffer was 0.5% Triton X-100 in phosphate buffered saline. After permeabilization of cells, the amounts of total Akt and phosphorylated Akt at either of the two phosphorylation sites (threonine-308 and serine-473) were determined at 7 test concentrations, each performed in quadruplicate. The phospho-Akt data were normalized to total Akt and background subtracted for analysis.
Following overnight serum starvation to reduce basal Akt phosphorylation, cells were stimulated with vehicle, RLip-EA-OH, or RLip-OH. Cells were treated for 45 minutes or 3 hours and studied for phosphorylation at serine-473 or threonine 308, respectively.

[5] = test system: Akt; assay: Immunohistochemistry assay for phosphorylated Akt in H9c2 cells; type: cell-based, rat; conditions: co-treatment with LY294002 (25 μM), 30 minutes prior to RLip-EA-OH
Method: The ability of RLip-EA-OH to increase phosphorylated Akt was assayed in H9c2 cells by immunocytochemistry followed by visualization using microscopy. H9c2 cells are a cell line derived from rat cardiac myocytes and can be manipulated to increase or decrease the level of phosphoryated Akt. Cells were inoculated onto culture plates and allowed to adhere to the bottom, treated, fixed, and permeabilized. Following permeabilization, cells were treated initially with specific phospho-Akt antibodies followed by fluorescent secondary antibodies to quantify the amount of bound primary antibody.
H9c2 cells were plated in 12 well cell culture treated plates at 70% confluence. Cells were incubated overnight to allow cell attachment. The media was changed to low serum (0.5%, fetal bovine serum [FBS]) and cells incubated for another 48 hours. Cells were treated for 3 hours with either vehicle, RLip-EA-OH (50 μM), or co-treatment with LY294002 (25 μM), fixed with 3.7% formaldehyde in phosphate buffered saline and permeabilized with 0.5% Triton X-100 in phosphate buffered saline. After permeabilization, the cells were treated with antibody specific for Akt phosphorylated at threonine-308, followed by treatment with a fluorescent labeled secondary antibody.

[6] = target: Src (Homo sapiens, UniProt P12931); assay: Src tyrosine kinase activation assay (mobility shift); type: biochemical
Sequence of Src (P12931 whole entry, species assumed): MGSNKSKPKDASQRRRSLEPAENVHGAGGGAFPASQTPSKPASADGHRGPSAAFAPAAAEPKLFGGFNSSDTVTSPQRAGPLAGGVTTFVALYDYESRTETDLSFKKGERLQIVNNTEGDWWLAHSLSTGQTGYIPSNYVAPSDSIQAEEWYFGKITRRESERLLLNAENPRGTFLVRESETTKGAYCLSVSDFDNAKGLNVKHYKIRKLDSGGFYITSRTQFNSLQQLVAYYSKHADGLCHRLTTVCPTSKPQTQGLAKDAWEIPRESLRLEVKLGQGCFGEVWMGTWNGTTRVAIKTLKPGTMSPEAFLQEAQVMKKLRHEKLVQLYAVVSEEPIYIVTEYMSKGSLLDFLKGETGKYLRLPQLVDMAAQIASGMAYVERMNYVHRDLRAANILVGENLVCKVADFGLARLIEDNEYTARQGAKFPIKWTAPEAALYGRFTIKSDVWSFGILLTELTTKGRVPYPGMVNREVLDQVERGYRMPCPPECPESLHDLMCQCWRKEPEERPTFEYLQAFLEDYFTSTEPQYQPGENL
Source text: (§1) IGF1R and Src tyrosine kinases have endogenous levels of activity in the presence of ATP and substrate. This activity was readily measured using a mobility shift assay using a Caliper LabChip® 3000 and a 12-sipper LabChip® to detect both phosphorylated and unphosphorylated substrate (Caliper Life Sciences, Discovery Alliances and Services Division). Enzyme, substrate and ATP concentrations were optimized for each assay. For the IGF1R assay, the final concentrations of the enzyme, peptide and ATP were 20 nM, 1.5 μM, and 1220 μM, respectively. For the Src assay, the final concentrations of the enzyme, peptide and ATP were 2.5 nM, 1.5 μM, and 17 μM, respectively.
(§2) RLip-EA-OH was evaluated at multiple concentrations for an effect on activation of IGF1 receptor kinase (IGF1R) and Src. The compounds tested activated IGF1R and Src with different selectivities.

[7] = target: T1, insulin receptor kinase (Homo sapiens, UniProt P06213); assay: IRK activation assay (mobility shift kinase assay); type: biochemical
T1 construct: insulin receptor kinase domain (Millipore catalog #14-466, 80 nM); purchased Millipore 14-466
T1 sequence (P06213 1023-1298 limits assumed): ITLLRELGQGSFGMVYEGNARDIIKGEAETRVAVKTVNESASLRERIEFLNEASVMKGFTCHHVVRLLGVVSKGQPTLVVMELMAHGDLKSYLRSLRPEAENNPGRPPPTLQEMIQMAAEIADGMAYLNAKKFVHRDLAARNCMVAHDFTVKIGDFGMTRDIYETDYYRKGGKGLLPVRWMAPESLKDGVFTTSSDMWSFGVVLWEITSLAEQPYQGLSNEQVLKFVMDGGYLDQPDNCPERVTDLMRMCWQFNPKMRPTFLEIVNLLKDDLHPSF
Source text: Insulin receptor kinase activity was readily measured by a mobility shift assay using a Caliper LabChip® 3000 and a 12-sipper LabChip® to detect both phosphorylated and unphosphorylated substrate (Caliper Life Sciences, Discovery Alliances and Services Division, Hanover, Md.). The mobility-shift kinase assay uses a micro fluidic chip to measure the conversion of a fluorescent peptide substrate to a phosphorylated product. The reaction mixture from a microtiter plate well was introduced through a capillary sipper onto the chip and the nonphosphorylated substrate and phosphorylated product were separated by electrophoresis and detected via laser-induced fluorescence. […] The catalytic subunits of tyrosine kinases have endogenous levels of activity in the presence of ATP and substrate, thus the results are presented as a % of control.
Specifically, each test compound was diluted to 25 times its assay concentration with 100% DMSO and added to 12 μL of an assay buffer solution (100 mM HEPES, 10 mM MnCl2, 5 mM B-GP, and 0.002% Brij) containing dithiotheritol (DTT, 2 mM) and insulin receptor kinase domain (Millipore catalog #14-466, 80 nM) prior to pre-incubation at room temperature for 15 minutes. […] The samples were placed on the LabChip 3000 to measure the amount of parent substrate and phosphorylated product. […]

[8] = target: IGF1R (Homo sapiens, UniProt P08069); assay: IGF1R tyrosine kinase activation assay (mobility shift); type: biochemical
Sequence of IGF1R (P08069 959-1367 limits assumed, species assumed): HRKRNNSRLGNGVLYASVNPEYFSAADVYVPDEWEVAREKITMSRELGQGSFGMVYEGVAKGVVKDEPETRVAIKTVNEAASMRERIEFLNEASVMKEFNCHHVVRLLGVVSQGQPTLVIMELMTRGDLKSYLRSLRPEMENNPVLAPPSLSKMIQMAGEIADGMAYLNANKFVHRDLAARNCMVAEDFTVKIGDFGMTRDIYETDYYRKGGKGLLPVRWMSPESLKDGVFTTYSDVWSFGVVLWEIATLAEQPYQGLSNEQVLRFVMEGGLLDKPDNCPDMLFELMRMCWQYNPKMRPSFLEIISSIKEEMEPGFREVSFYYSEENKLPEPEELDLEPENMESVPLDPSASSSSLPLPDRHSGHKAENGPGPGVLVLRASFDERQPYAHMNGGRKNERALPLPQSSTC
Source text: as §1, §2

[9] = test system: myocardial ischemia-reperfusion injury; assay: Rat model of myocardial I/R injury (MI/AR ratio); type: in vivo; conditions: rat

Structure (SMILES): CC(=O)N[C@@H](CCC(=O)O)C(=O)N[C@@H](C)C(=O)O [Ac-EA-OH, N-acetyl-L-glutamyl-L- alanine, reference compound] (Ac-Glu-Ala-OH)
efficacy compared to vehicle [1]: statistically similar to vehicle | effect on carbachol stimulated flux in cytosolic calcium [2]: minimal effect | peroxyl radical absorption capability ([3]; ORAC assay): no appreciable peroxyl radical absorption capability | ORAC Value relative to RLip-OH ([3]; mean of 3-4 experiments): 8 ± 5

Structure (SMILES): O=c1cc(N2CCOCC2)oc2c(-c3ccccc3)cccc12 [LY294002, 2-(4-morpholinyl)-8-phenyl-4H-1-benzopyran-4-one, reference compound]
effect on RLip-EA-OH-increased phosphorylation of Akt ([4]; cotreatment with 5 μM LY294002, 3 hours): completely inhibited | effect on fluorescence intensity from Akt phosphorylation induced by RLip-EA-OH [5]: diminished the fluorescence intensity

Src % Increase in activity above vehicle control ([6]; 300 μM): 15 ± 1% | IRK % Increase in activity above vehicle control ([7]; 300 μM): 48 ± 1% | IGF1R % Increase in activity above vehicle control ([8]; 300 μM): 37 ± 4%
Structure (SMILES): O=C(O)CCCC[C@@H]1CCSS1 [RLip-OH, (R)-lipoic acid, reference compound]
increase in phosphorylated Akt at serine 473 ([4]; 45 minutes of treatment): 2 fold | amount of phosphorylated Akt relative to total Akt ([4]; variant concentrations): increased the amount of phosphorylated Akt relative to total Akt in a dose dependent manner | effect on carbachol stimulated flux in cytosolic calcium [2]: minimal effect | Reduction of MI:AR Ratio Relative to Vehicle (%) ([9]; 2 mg/kg IC, Table 7 meta analysis): 19 ± 7 % | ORAC Value relative to RLip-OH ([3]; mean of 3-4 experiments): 100 ± 6

Src % activity above control (±SEM) ([6]; 100 μM): 19 ± 1% | AVG % activity above control (±SEM) ([7]; 100 μM): 4 ± 12% | IGF1R % activity above control (±SEM) ([8]; 100 μM): −4 ± 10%
Structure (SMILES): C[C@H](NC(=O)[C@H](CCC(=O)O)NC(=O)CCCC[C@H]1CCSS1)C(=O)O [SLip-EA-OH, N-(S)-lipoyl-L-glutamyl-L- alanine]
MI/AR ([9]; 1 mg/kg single bolus IC 15 minutes prior to ischemia): 0.401 | MI/AR ([9]; 2 mg/kg single bolus IC 15 minutes prior to ischemia): 0.400 | ORAC Value relative to RLip-EA-OH ([3]; mean of 3-4 experiments): 89 ± 4
